Activity calls are given as the source filed them.
Experiments:
[1] = viability of HCT116 lacking mutant beta-catenin – cell-based, human colon tumor, dose response (AID 1045); format: functional;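 note: HCT116 colon tumor cells with beta catenin knocked out; cells exposed to compound for 60 hours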
Coagulation factor XII = molecular target: T1, Coagulation factor XII (Homo sapiens, UniProt P00748); format: functional;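 note: activated factor XIIa alpha cleaving a fluorogenic AMC peptide substrate; inhibitor potency from loss of enzyme activity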
T1 sequence (P00748 whole entry): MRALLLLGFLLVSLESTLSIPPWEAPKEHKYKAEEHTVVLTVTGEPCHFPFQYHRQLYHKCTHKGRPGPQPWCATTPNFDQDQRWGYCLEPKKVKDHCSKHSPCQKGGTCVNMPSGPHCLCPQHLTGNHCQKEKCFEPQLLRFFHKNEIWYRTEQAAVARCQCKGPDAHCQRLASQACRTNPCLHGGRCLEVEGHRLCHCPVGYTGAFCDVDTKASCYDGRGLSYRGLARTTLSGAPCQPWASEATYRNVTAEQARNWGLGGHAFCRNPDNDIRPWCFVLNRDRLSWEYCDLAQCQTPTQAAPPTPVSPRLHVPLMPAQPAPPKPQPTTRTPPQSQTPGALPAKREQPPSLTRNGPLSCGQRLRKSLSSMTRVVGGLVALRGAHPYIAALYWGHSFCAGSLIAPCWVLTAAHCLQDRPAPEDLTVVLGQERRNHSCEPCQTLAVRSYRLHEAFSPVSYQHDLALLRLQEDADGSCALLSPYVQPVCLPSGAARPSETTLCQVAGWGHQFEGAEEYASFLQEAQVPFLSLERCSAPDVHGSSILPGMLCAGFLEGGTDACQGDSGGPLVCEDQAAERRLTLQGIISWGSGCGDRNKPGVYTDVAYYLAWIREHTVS

[2] = non-specific 3'UTR reporter inhibition in Clone20-Shn3RL – cell-based, Renilla luciferase, cherry-picked, counter-screen for Shn3 inhibitor project, dose response (AID 624133); format: functional
[3] = viability of PTEN-deleted HCT116 cells – cell-based, HCT116 PTEN knockout, dose response (AID 1047); format: functional;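 note: HCT116 colon tumor cells with PTEN knocked out; cells exposed to compound for 60 hours before readout; potency for loss of cell viability measured by luminescence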
[4] = loss of viability in HepG2 cells – cell-based, CellTiter-Glo, cherry-picked, cytotoxicity control for Shn3 inhibitor project, dose response (AID 624134); format: functional
[5] = reduction of Shn3 3'UTR-driven luciferase in osteoblasts – cell-based, Clone20 osteoblasts, firefly luciferase, cherry-picked, dose response (AID 624132); format: functional;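 note: firefly luciferase luminescence from reporter carrying the Shn3 3'UTR in osteoblasts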
[6] = molecular target: T2, Heat shock factor protein 1 (Mus musculus, UniProt P38532); assay: enhancement of HSF1-driven luciferase signal – cell-based, NIH3T3, luminescence, dose retest, confirmation (AID 435004); format: functional;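 note: stress induced by proteasome inhibitor MG132 added 30 min after compound; luciferase reporter driven by HSF1 response element in NIH3T3 cells; actives raise luminescence as potentiators of the MG132 stress response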
T2 sequence (P38532 whole entry): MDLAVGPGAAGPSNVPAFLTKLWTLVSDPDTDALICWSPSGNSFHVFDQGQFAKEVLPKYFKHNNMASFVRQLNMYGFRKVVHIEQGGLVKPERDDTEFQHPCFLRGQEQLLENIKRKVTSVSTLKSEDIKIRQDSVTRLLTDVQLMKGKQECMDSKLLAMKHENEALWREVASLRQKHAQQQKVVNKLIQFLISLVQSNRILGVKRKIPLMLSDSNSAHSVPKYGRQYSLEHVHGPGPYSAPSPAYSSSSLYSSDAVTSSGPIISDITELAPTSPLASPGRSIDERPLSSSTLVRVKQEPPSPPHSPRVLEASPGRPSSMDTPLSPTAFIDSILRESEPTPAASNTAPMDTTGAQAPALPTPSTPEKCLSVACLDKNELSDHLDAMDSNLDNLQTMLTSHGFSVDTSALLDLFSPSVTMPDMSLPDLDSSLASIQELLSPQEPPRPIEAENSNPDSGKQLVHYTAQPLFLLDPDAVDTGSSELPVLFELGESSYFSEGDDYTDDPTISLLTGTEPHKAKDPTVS

[7] = molecular target: Ras and Rab interactor 1/Tyrosine-protein kinase ABL1 (Homo sapiens, UniProt P00519+Q13671); format: functional;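 note: biochemical TR-FRET dose-response test measuring inhibition of binding between Rin1 and Abl proteins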
Chain of Ras and Rab interactor 1/Tyrosine-protein kinase ABL1 (P00519 whole entry): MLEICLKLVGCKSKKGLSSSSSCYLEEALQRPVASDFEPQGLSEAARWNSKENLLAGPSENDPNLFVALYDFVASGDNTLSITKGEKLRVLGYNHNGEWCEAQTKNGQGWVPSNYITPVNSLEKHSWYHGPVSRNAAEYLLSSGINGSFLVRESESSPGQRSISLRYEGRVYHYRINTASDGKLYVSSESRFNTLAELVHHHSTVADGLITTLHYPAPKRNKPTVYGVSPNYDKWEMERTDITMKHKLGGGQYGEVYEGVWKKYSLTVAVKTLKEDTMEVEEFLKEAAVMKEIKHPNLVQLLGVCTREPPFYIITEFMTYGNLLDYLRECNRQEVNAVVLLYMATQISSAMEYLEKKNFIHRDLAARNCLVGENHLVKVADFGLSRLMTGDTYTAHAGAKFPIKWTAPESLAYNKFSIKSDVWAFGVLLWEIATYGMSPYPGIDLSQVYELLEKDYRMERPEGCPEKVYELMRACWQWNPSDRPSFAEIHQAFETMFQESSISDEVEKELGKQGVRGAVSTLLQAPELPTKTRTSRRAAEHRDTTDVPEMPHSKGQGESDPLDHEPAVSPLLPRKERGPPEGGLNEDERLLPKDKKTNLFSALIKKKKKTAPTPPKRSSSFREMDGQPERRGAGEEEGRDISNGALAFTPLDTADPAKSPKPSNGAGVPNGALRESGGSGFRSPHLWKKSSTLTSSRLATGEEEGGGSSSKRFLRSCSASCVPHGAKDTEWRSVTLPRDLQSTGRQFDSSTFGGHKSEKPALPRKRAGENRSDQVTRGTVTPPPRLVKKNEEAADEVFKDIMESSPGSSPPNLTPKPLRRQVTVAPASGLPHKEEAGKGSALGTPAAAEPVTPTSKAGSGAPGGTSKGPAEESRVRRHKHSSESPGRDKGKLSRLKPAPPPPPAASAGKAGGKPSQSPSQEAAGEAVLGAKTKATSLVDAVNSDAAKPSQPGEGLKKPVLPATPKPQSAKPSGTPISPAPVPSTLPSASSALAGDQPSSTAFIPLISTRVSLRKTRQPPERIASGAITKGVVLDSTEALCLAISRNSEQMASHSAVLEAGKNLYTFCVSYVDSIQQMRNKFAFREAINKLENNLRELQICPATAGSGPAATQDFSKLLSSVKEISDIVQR
Chain of Ras and Rab interactor 1/Tyrosine-protein kinase ABL1 (Q13671 whole entry): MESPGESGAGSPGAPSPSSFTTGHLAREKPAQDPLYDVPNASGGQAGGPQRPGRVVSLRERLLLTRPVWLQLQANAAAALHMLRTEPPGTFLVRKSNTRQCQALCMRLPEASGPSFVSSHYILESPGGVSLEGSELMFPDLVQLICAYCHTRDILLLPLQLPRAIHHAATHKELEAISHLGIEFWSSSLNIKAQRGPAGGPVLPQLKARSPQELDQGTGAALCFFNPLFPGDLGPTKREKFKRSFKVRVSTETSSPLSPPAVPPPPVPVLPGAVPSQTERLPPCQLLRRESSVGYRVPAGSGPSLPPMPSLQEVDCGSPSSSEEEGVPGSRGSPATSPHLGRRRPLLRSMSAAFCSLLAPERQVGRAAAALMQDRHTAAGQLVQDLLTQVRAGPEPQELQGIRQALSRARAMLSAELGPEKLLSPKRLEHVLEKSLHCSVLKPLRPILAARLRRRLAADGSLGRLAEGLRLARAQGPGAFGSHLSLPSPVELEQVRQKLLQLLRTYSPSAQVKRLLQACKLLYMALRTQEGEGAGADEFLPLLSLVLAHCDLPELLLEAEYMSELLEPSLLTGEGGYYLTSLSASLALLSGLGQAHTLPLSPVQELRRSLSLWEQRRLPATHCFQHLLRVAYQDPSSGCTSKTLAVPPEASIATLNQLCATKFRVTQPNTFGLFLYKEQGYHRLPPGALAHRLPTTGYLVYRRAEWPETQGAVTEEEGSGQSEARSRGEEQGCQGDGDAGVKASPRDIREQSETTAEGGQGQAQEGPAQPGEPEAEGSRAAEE

[8] = molecular target: T3, Short transient receptor potential channel 4 (Mus musculus, UniProt Q9QUQ5); assay: block of DAMGO-driven TRPC4 calcium entry – cell-based, HEK293 TRPC4/mu-opioid, Fluo-4 calcium, dose response (AID 434942); format: functional;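 note: potency of inhibitors blocking the TRPC4 calcium response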
T3 sequence (Q9QUQ5 whole entry): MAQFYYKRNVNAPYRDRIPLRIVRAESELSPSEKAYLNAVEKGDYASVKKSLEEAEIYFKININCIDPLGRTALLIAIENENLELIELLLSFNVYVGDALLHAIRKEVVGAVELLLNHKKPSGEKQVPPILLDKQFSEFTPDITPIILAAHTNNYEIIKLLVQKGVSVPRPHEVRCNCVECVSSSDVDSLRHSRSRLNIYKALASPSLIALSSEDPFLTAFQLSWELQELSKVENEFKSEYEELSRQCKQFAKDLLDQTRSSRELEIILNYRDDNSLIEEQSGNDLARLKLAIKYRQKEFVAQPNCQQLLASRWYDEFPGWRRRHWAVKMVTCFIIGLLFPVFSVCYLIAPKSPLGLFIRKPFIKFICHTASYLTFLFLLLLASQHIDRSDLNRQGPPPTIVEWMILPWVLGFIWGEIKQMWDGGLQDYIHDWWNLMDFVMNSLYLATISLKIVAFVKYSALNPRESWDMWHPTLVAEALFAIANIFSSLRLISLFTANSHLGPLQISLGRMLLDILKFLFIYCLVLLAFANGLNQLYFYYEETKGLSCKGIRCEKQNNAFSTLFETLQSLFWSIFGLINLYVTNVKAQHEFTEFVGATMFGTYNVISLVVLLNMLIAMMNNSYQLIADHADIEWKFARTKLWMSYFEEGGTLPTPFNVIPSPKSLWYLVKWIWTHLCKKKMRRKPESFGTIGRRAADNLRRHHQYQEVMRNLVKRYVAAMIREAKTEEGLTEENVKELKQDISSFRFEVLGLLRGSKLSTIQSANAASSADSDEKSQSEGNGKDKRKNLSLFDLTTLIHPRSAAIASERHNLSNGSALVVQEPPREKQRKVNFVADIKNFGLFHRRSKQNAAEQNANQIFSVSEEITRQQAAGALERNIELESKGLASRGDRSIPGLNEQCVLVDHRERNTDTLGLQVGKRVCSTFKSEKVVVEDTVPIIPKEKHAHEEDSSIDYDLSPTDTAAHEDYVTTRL

Vero [9] = assay: cells; format: functional; conditions: Chlorocebus sabaeus
[10] = alpha-synuclein stem-loop luciferase translation blockers – H4 neuroglioma cells, luminescence, confirmation (AID 1988); format: functional, cell-based
Vero [11] = assay: cells; format: functional, cell-based; conditions: Chlorocebus sabaeus
[12] = luciferase reporter signal suppression in cells – H4 neuroglioma cells, luminescence, dose response (AID 1990); format: functional, cell-based
[13] = molecular target: T4, Small ubiquitin-related modifier 1 (Homo sapiens, UniProt P63165); assay: SUMO1 protein-protein binding blockers, potency – biochemical, FRET, dose response (AID 624383); format: functional; conditions: read-out: IC50_Mean
T4 sequence (P63165 whole entry): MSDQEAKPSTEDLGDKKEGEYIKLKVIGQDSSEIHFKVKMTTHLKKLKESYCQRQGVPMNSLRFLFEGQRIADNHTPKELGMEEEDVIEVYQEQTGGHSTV

[14] = molecular target: T4, Small ubiquitin-related modifier 1; assay: SUMO1 protein interaction blockers, potency – biochemical, fluorescence polarization, uHTS hits, dose response (AID 624382); format: functional; conditions: read-out: IC50_Mean
[15] = molecular target: T2, Heat shock factor protein 1; assay: decrease of HSF1-responsive luciferase luminescence – cell-based, NIH3T3, dose retest, confirmation (AID 2382); format: functional;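 note: NIH3T3 fibroblasts with HSF1-driven luciferase reporter stressed by proteasome inhibitor MG132; luminescence from HSF1-driven luciferase expression after 8 hours of MG132 stress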
[16] = blockers of CRF-binding protein–CRF-R2 complex – cell-based, uHTS hits, 384-well, dose response (AID 651639); format: functional, Homo sapiens; conditions: read-out: IC50_Mean
[17] = molecular target: T5, Corticotropin-releasing factor receptor 2/Corticotropin-releasing factor-binding protein (Homo sapiens, UniProt P24387+Q13324); assay: activators of CRF receptor 2 with binding protein – uHTS hits, confirmation (AID 602473); format: functional; conditions: read-out: EC50_Mean
T5 sequence (Q13324 whole entry): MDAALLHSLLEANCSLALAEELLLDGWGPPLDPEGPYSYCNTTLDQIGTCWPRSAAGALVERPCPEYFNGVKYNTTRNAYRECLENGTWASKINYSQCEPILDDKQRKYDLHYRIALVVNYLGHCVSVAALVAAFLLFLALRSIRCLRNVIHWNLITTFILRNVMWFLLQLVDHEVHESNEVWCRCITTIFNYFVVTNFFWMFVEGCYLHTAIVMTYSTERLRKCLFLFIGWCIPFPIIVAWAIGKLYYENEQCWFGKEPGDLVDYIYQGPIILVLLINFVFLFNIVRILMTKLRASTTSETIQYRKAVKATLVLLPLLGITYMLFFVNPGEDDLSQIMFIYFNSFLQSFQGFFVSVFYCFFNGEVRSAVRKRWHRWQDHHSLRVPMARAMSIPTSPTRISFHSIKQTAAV
T5 sequence (P24387 whole entry): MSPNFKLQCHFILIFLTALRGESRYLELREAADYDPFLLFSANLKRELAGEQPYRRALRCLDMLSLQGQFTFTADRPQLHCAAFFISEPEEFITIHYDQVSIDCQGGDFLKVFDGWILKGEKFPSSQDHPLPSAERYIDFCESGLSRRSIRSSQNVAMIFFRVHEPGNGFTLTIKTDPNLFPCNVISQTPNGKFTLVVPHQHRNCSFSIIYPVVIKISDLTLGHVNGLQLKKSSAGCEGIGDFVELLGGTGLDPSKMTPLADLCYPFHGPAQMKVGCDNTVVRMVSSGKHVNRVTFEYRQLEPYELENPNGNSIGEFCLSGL

[18] = molecular target: T5, Corticotropin-releasing factor receptor 2/Corticotropin-releasing factor-binding protein; assay: Dose Response confirmation of uHTS hits for small molecule antagonists of the CRF-binding protein and CRF-R2 receptor complex.; format: functional; conditions: read-out: IC50_Mean
Protein Wnt-3a = Protein Wnt-3a (Mus musculus, UniProt P27467); assay: antagonism of Wnt3a pathway luciferase reporter – Wnt-LIGHT cells, luminescence, selectivity assay for Gli-SUFU antagonist project, dose response (AID 651570); format: functional; conditions: read-out: IC50_Mean;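 note: Wnt-LIGHT reporter cells stimulated with conditioned medium from Wnt3a-producing cells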
Chain of Protein Wnt-3a (P27467 whole entry): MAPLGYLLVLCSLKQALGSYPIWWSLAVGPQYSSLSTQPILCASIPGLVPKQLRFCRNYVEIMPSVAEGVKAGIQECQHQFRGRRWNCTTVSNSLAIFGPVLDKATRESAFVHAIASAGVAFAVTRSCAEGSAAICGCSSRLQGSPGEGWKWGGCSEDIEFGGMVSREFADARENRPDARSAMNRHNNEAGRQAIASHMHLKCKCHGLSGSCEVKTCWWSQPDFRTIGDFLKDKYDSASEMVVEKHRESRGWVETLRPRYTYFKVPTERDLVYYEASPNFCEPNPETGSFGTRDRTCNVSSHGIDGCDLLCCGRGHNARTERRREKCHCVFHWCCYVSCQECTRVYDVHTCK

[19] = activation of miR-122 Renilla sensor silencing – cell-based, Huh7 psiCHECK-miR122, Renilla luciferase, cherry-picked, dose response (AID 651956); format: functional;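 note: huh7 hepatoma cells stably carrying a psiCHECK-2 miR-122 sensor plasmid; renilla luciferase signal reporting endogenous miR-122 activity after 48 h compound exposure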

## O=C(CN(C(=O)c1ccccc1Cl)C1CCCCC1)Nc1ccc(Cl)c([N+](=O)[O-])c1
[1]
  EC50: 17.4 µM (active)
Coagulation factor XII
  IC50: > 50 µM (inactive)
[2]
  AC50: 10.8 µM (active)
[3]
  EC50: 16.1 µM (active)
[4]
  AC50: 63.7 µM (active)
[5]
  AC50: 5.1 µM (active)
[6]
  EC50: > 260 µM (inactive)

## CCOc1ccccc1N(C(=O)c1snc(C(N)=O)c1N)C(C(=O)NCc1ccccc1)c1ccc(O)cc1 (stereo not given)
[7]
  IC50: > 73.5 µM (inactive)
[8]
  EC50: 4.22 µM (active)

## O=C(NC1CCCc2c1cnn2-c1ccccc1F)c1ccccn1 (stereo not given)
Vero [9]
  CC50: > 25 µM (active)
[10]
  EC50: 57.4 µM (active)
Vero [11]
  IC50: 5.73 µM (active)
[12]
  EC50: > 120 µM (not active)

## C=C(C)C(=O)Nc1ccc2c(c1)OCCOCCOCCO2
[13]
  IC50: 1.74 µM (active)
[14]
  IC50: > 66.6 µM (inactive)

## COc1cccc(CNc2ccc(S(N)(=O)=O)cc2)c1OC
Coagulation factor XII
  IC50: > 50 µM (inactive)
[15]
  EC50: > 195 µM (not active)

## CCOC(=O)c1c(-c2ccc(OC)c(OC)c2)csc1NC(=O)C1CCCO1 (stereo not given)
[16]
  IC50: > 20 µM (inactive)
[17]
  EC50: > 53 µM (inactive)
[18]
  IC50: 3.95 µM (active)

## CCOC(CN=c1nc(N(C)C)ss1)OCC
Protein Wnt-3a
  IC50: 40.4 µM (inactive)

## CN(C)CC1CCC/C(=C/c2ccc(Cl)cc2)C1=O (stereo not given)
Vero [9]
  CC50: 21.4 µM (active)
Vero [11]
  IC50: > 25 µM (active)

## CN(c1ccccc1)S(=O)(=O)c1ccc(C(=O)Nc2cccc(S(=O)(=O)N3CCOCC3)c2)cc1
[19]
  AC50: 59.3 µM (active)

## CC(=O)Nc1cccc(-c2ccnc3c2CC(C(=O)NCc2ccc(N4CCN(C)CC4)cc2)O3)c1 (stereo not given)
[7]
  IC50: 14.4 µM (inactive)

From ChEMBL document CHEMBL1201862, “PubChem BioAssay data set” (2004)
